Data as given in patent US7220876B2, “Arylcycloalkyl derivatives having branched side chains, processes for their preparation and their use as pharmaceuticals” (Sanofi-Aventis Deutschland GmbH, priority 2003, dated 2007).

Target: T1, human PPARalpha (Homo sapiens, UniProt Q07869)
T1 construct: human PPARalpha receptor (amino acids S167-Y468); expressed in transfected cells; host or cells: HEK (human embryo kidney) cells, stably transfected with pcDNA3 carrying the fusion construct
T1 sequence (Q07869 167-468): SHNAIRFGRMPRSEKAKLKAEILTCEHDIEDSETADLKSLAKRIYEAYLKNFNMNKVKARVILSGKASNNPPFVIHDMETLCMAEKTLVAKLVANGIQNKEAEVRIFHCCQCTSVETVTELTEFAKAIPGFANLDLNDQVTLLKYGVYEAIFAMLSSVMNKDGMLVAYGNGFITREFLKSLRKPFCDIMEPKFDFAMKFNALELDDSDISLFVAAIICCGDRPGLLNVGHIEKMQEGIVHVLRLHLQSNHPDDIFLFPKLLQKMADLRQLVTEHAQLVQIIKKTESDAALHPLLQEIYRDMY
Test: Cellular PPARalpha assay (stably transfected HEK luciferase reporter cell line)
Type: cell-based
Conditions: GR-GAL4-humanPPARalpha-LBD, luciferase readout
Protocol: The potency of substances which bind to human PPARalpha and activate in an agonistic manner is analyzed using a stably transfected HEK cell line (HEK=human embryo kidney) which is referred to here as PPARalpha reporter cell line. It contains two genetic elements, a luciferase reporter element (pdeltaM-GAL4-Luc-Zeo) and a PPARalpha fusion protein (GR-GAL4-humanPPARalpha-LBD) which mediates expression of the luciferase reporter element depending on a PPARalpha ligand. The stably and constitutively expressed fusion protein GR-GAL4-humanPPARalpha-LBD binds in the cell nucleus of the PPARalpha reporter cell line via the GAL4 protein portion to the GAL4 DNA binding motifs 5′-upstream of the luciferase reporter element which is integrated in the genome of the cell line. There is only little expression of the luciferase reporter gene without addition of a PPARalpha ligand if fatty acid-depleted fetal calf serum (cs-FCS) is used in the assay. PPARalpha ligands bind and activate the PPARalpha fusion protein and thereby bring about expression of the luciferase reporter gene. The luciferase which is formed can be detected by means of chemiluminescence via an appropriate substrate.
The PPARalpha reporter cell line was prepared in 2 stages. Firstly, the luciferase reporter element was constructed and stably transfected into HEK cells. […] The minimal MMTV promoter section contains a CCAAT box and a TATA element in order to enable efficient transcription by RNA polymerase II. […] Then the complete Photinus pyralis gene (Genbank Accession # M15077) was cloned in 3′-downstream of the GAL4-MMTV element. After sequencing, the luceriferase reporter element consisting of five GAL4 binding sites, MMTV promoter and luciferase gene was recloned into a plasmid which confers zeocin resistance in order to obtain the plasmid pdeltaM-GAL4-Luc-Zeo. This vector was transfected into HEK cells in accordance with the statements in Ausubel, F. M. et al. (Current protocols in molecular biology, Vol. 1-3, John Wiley & Sons, Inc., 1995). […] In a second step, the PPARalpha fusion protein (GR-GAL4-humanPPARalpha-LBD) was introduced into the stable cell clone described. […] The cDNA of the ligand-binding domain of the human PPARalpha receptor (amino acids S167-Y468; Genbank Accession # S74349) was cloned in at the 3′-end of this GR-GAL4 construct. The fusion construct prepared in this way (GR-GAL4-humanPPARalpha-LBD) was recloned into the plasmid pcDNA3 (from Invitrogen) in order to enable constitutive expression therein by the cytomegalovirus promoter. This plasmid was linearized with a restriction endonuclease and stably transfected into the previously described cell clone containing the luciferase reporter element. The finished PPARalpha reporter cell line which contains a luciferase reporter element and constitutively expresses the PPARalpha fusion protein (GR-GAL4-human PPARalpha-LBD) was isolated by selection with zeocin (0.5 mg/ml) and G418 (0.5 mg/ml).
The activity of PPARalpha agonists is determined in a 3-day assay which is described below: […]

Row | EC50 [nM] | SMILES
1 | 3.3 | CCCCNC(=O)N(CCOC1CCCC(OCc2cccc(C)c2C(=O)O)C1)C(C)CC(C)C (mixture of isomers) [XXII, 2-(cis-3-{2-[3-butyl-1-((1S)/(1R),3-dimethylbutyl)-ureido]ethoxy}cyclohexyloxymethyl)-6-methylbenzoic acid]
2 | 90 | Cc1cccc(CO[C@@H]2CCC[C@H](OCCN(C(=O)Nc3cccc(F)c3)C3CC3)C2)c1C(=O)O (racemic) [XLV, 2-(cis-3-{2-[1-cyclopropyl-3-(3-fluorophenyl)-ureido]ethoxy}cyclohexyloxymethyl)-6-methylbenzoic acid]
3 | 31 | Cc1ccccc1NC(=O)N(CCO[C@H]1CCC[C@@H](OCc2cccc(C)c2C(=O)O)C1)C1CCCCC1 (racemic) [XV, 2-{cis-3-[2-(1-cyclohexyl-3-o-tolylureido)ethoxy]cyclohexyloxymethyl}-6-methylbenzoic acid]
4 | 38 | Cc1cccc(CO[C@@H]2CCC[C@H](OCCN(C(=O)Nc3cccc(F)c3)C3CCCCC3)C2)c1C(=O)O (racemic) [XVI, 2-(cis-3-{2-[1-cyclohexyl-3-(3-fluorophenyl)-ureido]ethoxy}cyclohexyloxymethyl)-6-methylbenzoic acid]
5 | 84 | CCCCNC(=O)N(CCO[C@H]1CCC[C@@H](OCc2cccc(C)c2C(=O)O)C1)C1CCCCC1 (racemic) [XVII, 2-{cis-3-[2-(3-butyl-1-cyclohexylureido)ethoxy]cyclohexyloxymethyl}-6-methylbenzoic acid]
6 | 0.17 | CCCCCCCN(CCO[C@H]1CCC[C@@H](OCc2cccc(C)c2C(=O)O)C1)C(=O)NCCCC (racemic) [XXXIX, 2-{cis-3-[2-(3-butyl-1-heptylureido)ethoxy]cyclohexyloxy-methyl}-6-methylbenzoic acid]

Further lines, the compound ahead of its results:

Row | SMILES | EC50 [nM]
7 | Cc1cccc(CO[C@@H]2CCC[C@H](OCCN(CCCc3ccccc3)C(=O)Nc3ccccc3)C2)c1C(=O)O [Example I, 2-{(1R,3S)-3-[2-(1-[3-phenylpropyl]-3-phenylureido)ethoxy]cyclohexyloxymethyl}-6-methylbenzoic acid] | 1.9
8 | Cc1cccc(CO[C@@H]2CCC[C@H](OCCN(CCc3ccc(Cl)cc3)C(=O)Nc3ccccc3)C2)c1C(=O)O [II, 2-{(1R,3S)-3-[2-(1-[2-(4-chlorophenyl)ethyl]-3-phenylureido)ethoxy]cyclohexyloxymethyl}-6-methylbenzoic acid] | 4.9
9 | CCCCCCCN(CCO[C@H]1CCC[C@@H](OCc2cccc(C)c2C(=O)O)C1)C(=O)Nc1ccccc1 [IX, 2-{(1R,3S)-3-[2-(1-heptyl-3-phenylureido)ethoxy]cyclohexyloxymethyl}-6-methylbenzoic acid] | 0.13
10 | CCCCCN(CCO[C@H]1CCC[C@@H](OCc2cccc(C)c2C(=O)O)C1)C(=O)Nc1ccccc1 [VII, 2-{(1 R,3S)-3-[2-(1-pentyl-3-phenylureido)ethoxy]cyclohexyloxymethyl}-6-methylbenzoic acid] | 1.7
11 | Cc1cccc(CO[C@@H]2CCC[C@H](OCCN(CC(C)(C)C)C(=O)Nc3ccccc3)C2)c1C(=O)O [VIII, 2-((1R,3S)-3-{2-[1-(2,2-dimethylpropyl)-3-phenylureido]ethoxy}cyclohexyloxymethyl)-6-methylbenzoic acid] | 96
12 | CCCCNC(=O)N(CCO[C@H]1CCC[C@@H](OCc2cccc(C)c2C(=O)O)C1)Cc1ccc(C)cc1 [XII, 2-((1R,3S)-3-{2-[3-butyl-1-(4-methylbenzyl)ureido]ethoxy}-cyclohexyloxymethyl)-6-methylbenzoic acid] | 0.07
